# In patent publication US9572877B2 (priority 2010, dated 2017):
# What was measured:
# [1] = test system: mouse BMDC (Bone marrow DCs); assay: Maturation of dendritic cells: surface marker expression by flow cytometry, mouse BMDC; assay type: cell-based; settings: mouse BMDCs, 1 μg/ml, 37° C., 24 hrs
# Method: (§1) Approximately 80 ml of blood from healthy human donors was collected and isolated peripheral blood mononuclear cells (PBMCs) with Ficoll-Paque™ gradient separation method. Monocytes were isolated from PBMCs using anti-CD14 microbeads (MACS system), seeded at […] in a 24-well plate with RPMI medium contained 10% FBS, IL-4 and GM-CSF and cultured to obtain human MDDCs. Bone marrow cells were isolated from male BALB/c mouse and cultured with medium contained IL-4 and GM-CSF for 6 days to obtain BMDCs. Then, at 7 days, CD11c^+ cells were isolated using anti-CD11c-coated magnetic beads.
# (§2) Human MDDCs (Monocyte-derived DC cells) and mouse BMDC (Bone marrow DCs) were isolated with the method described above, treated respectively with LPS, MPL and CIA05 with 1 μg/ml of concentration and incubated at 37° C. for 24 hrs. After incubation, CD40, CD80 and CD86 were verified in mouse BMDCs surface, and HLA-DR, CD80 and CD86 were verified in human MDDCs by flow cytometry, respectively. […] Therefore, CIA05 may solve these problems.
# [2] = test system: Human MDDCs (Monocyte-derived DC cells); assay: Maturation of dendritic cells: surface marker expression by flow cytometry, human MDDCs; assay type: cell-based; settings: 1 μg/ml, 37° C., 24 hrs
# Method: as §1, §2
substance,measurement,setting,value
Monophosphoryl lipid A [MPL],"expression of DCs surface marker CD40, CD80 and CD86",[1],expressed with similar distribution
same,"expression of MDDCs surface marker HLA-DR, CD80 and CD86",[2],limited in human
lipopolysaccharide [LPS],"expression of DCs surface marker CD40, CD80 and CD86",[1],expressed with similar distribution
